Test results as given in patent publication US9181236B2, “2-spiro-substituted iminothiazines and their mono-and dioxides as bace inhibitors, compositions and their use” (Merck Sharp & Dohme Corp., priority 2011, dated 2015).

Key:
[1] = target: soluble human BACE1 catalytic domain (Homo sapiens (Human), UniProt P56817); experiment: BACE1 HTRF FRET Assay; format: biochemical; settings: Ki calculated from IC50 using the Cheng-Prusoff equation
[2] = target: purified human autoBACE-2 (Homo sapiens (Human), UniProt Q9Y5Z0); experiment: BACE-2 Assay (BACE-HTRF assay); format: biochemical; settings: Ki calculated from IC50 using the Cheng-Prusoff equation; read-out: BACE2 Ki
purified human autoBACE-2, sequence (Q9Y5Z0 63-473 limits assumed): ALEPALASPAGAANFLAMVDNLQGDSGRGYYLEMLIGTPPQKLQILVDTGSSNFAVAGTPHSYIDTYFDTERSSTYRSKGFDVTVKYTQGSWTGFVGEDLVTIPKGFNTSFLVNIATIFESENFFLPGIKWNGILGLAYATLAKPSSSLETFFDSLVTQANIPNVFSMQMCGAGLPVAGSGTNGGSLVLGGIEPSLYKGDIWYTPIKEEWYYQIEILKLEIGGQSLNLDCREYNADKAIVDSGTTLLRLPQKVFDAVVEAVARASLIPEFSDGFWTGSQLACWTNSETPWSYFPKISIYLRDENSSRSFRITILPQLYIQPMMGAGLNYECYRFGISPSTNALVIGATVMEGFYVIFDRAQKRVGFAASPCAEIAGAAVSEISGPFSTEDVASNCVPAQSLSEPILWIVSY
Method: Inhibitor IC50s at purified human autoBACE-2 are determined in a time-resolved endpoint proteolysis assay that measures hydrolysis of the QSY7-[…]-Eu-amide FRET peptide substrate (BACE-HTRF assay). […] DMSO is present at 5% final concentration in the assay. Following laser excitation of sample wells at 320 nm, the fluorescence signal at 620 nm is collected for 400 ms following a 50 μs delay on a RUBYstar HTRF plate reader (BMG Labtechnologies). Raw RFU data is normalized to maximum (1.0 nM BACE/DMSO) and minimum (no enzyme/DMSO) RFU values. […] The Ki values are calculated from the IC50 using the Cheng-Prusoff equation.

soluble human BACE1 catalytic domain, sequence (P56817 75-416): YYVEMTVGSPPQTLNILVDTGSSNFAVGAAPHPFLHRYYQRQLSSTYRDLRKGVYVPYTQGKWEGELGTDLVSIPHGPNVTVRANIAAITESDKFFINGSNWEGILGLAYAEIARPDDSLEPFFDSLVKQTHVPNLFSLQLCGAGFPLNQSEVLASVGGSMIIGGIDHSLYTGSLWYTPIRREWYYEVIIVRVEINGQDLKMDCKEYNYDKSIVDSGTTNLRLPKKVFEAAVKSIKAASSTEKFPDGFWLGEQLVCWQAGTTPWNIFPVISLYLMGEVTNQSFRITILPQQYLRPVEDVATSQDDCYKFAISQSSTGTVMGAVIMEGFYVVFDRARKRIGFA

SMILES	Ki [1] [nM]	Ki [2] [nM]
COc1ccc(C(=O)Nc2ccc(F)c([C@]3(C)CS(=O)(=O)C4(CCC4)C(=N)N3)c2)nc1 [Example 10]	10.7	< 20
C[C@@]1(c2cc(NC(=O)c3ccc(C(F)(F)F)cn3)ccc2F)CS(=O)(=O)C2(CCCCC2)C(=N)N1 [Example 29]	23.3	< 50
COc1cccc2cc(-c3cc(Cl)c([C@]4(C)CS(=O)(=O)C5(CCC5)C(=N)N4)s3)[nH]c12 [Example 58]	7.7	1
COc1cnc(C(=O)Nc2ccc(F)c([C@]3(C)CS(=O)(=O)[C@]4(CCOC4)C(=N)N3)c2)cn1 [Example 62]	25.4	< 20
C[C@@]1(c2cc(NC(=O)c3ccc(F)cn3)ccc2F)CS(=O)(=O)C2(CCCCC2)C(=N)N1 [Example 25]	32	4.4
C[C@@]1(c2cc(NC(=O)c3ccc(Cl)cn3)ccc2F)CS(=O)(=O)[C@@]2(CCOC2)C(=N)N1 [Example 63c]	5.9	1.3
C[C@@]1(c2cc(NC(=O)c3ccc(C#N)cn3)ccc2F)CS(=O)(=O)C2(CCCCC2)C(=N)N1 [Example 28]	10.6	< 20
C[C@@]1(c2sc(Br)cc2Cl)CS(=O)(=O)C2(CC2)C(=N)N1	912	465

Next, values leading:

Ki [1] [nM]	Ki [2] [nM]	SMILES
45.3	2.2	C[C@@]1(c2sc(-c3ccnc(-c4ccco4)c3)cc2Cl)CS(=O)(=O)[C@]2(CCOC2)C(=N)N1 [Example 62l]
17	4	C[C@@]1(c2sc(C(=O)Nc3cccc(Cl)n3)cc2Cl)CS(=O)(=O)C2(CC2)C(=N)N1 [Example 79b]
6.3	0.9	COc1cccc2cc(-c3cc(Cl)c([C@]4(C)CS(=O)(=O)[C@]5(CCOC5)C(=N)N4)s3)[nH]c12 [Example 62g]
6.1	< 20	C[C@@]1(c2cc(NC(=O)c3ccc(C#N)cn3)ccc2F)CS(=O)(=O)[C@]2(CCOC2)C(=N)N1 [Example 62e]
